Laboratory results reported in patent US12263172B2, “Toll-like receptor agonists for use in the treatment of hepatitis b” (priority 2019, dated 2025).
“And” between values parts separate entries of the source, which are not always exact repeats. Equal values may be shown once.

Assay: Phase 1 single-ascending dose (Part 1): safety and tolerability in healthy adults
Type: in vivo, human
Procedure: This ongoing trial is a Phase 1 randomized, double-blind, placebo-controlled study in male and female healthy adult volunteers aged 18-55 years. All volunteers provided written, informed consent.
All volunteers were followed up for 4 weeks and safety and tolerability were continuously assessed throughout the study. All adverse events (AEs) were recorded from the time of consent to the completion visit and were graded using the DAIDS toxicity grading scale. Volunteers also underwent physical examinations, electrocardiograms, vital sign checks and clinical laboratory parameters (chemistry, haematology, urinalysis).

Q: What does the source list for `CCCCOc1nc(N)c2[nH]cc(Cc3ccc(CN4CCCC4)cc3)c2n1` [Compound 4]?
A: lab toxicity: Cholesterol (mmol/L), upwards, Grade 2 (single dose 0.6 mg fasted): 0 n (%); lab toxicity: Creatine kinase (U/L), upwards, Grade 1 (single dose 0.6 mg fasted): 0 n (%); lab toxicity: Creatine kinase (U/L), upwards, Grade 2 (single dose 0.6 mg fasted): 1 (16.7%) n (%); lab toxicity: Creatine kinase (U/L), upwards, Grade 4 (single dose 0.6 mg fasted): 0 n (%); lab toxicity: Glucose (mmol/L), upwards, Grade 1 (single dose 0.6 mg fasted): 1 (16.7%) n (%); lab toxicity: Glucose (mmol/L), upwards, Grade 2 (single dose 0.6 mg fasted): 1 (16.7%) n (%); lab toxicity: LDL cholesterol (mmol/L, calculated), upwards, Grade 1 (single dose 0.6 mg fasted): 2 (33.3%) n (%); lab toxicity: LDL cholesterol (mmol/L, calculated), upwards, Grade 2 (single dose 0.6 mg fasted): 1 (16.7%) n (%); lab toxicity: LDL cholesterol (mmol/L, calculated), upwards, Grade 3 (single dose 0.6 mg fasted): 0 n (%); lab toxicity: Lymphocytes (giga/L), downwards, Grade 2 (single dose 0.6 mg fasted): 0 n (%); lab toxicity: Lymphocytes (giga/L), downwards, Grade 4 (single dose 0.6 mg fasted): 0 n (%); lab toxicity: Neutrophils, segmented (giga/L), downwards, Grade 1 (single dose 0.6 mg fasted): 0 n (%); lab toxicity: Neutrophils, segmented (giga/L), downwards, Grade 2 (single dose 0.6 mg fasted): 0 n (%); lab toxicity: Platelets (giga/L), downwards, Grade 1 (single dose 0.6 mg fasted): 0 n (%); lab toxicity: Sodium (mmol/L), upwards, Grade 1 (single dose 0.6 mg fasted): 2 (33.3%) n (%); lab toxicity: Sodium (mmol/L), upwards, Grade 2 (single dose 0.6 mg fasted): 1 (16.7%) n (%); lab toxicity: Triglycerides (mmol/L), upwards, Grade 1 (single dose 0.6 mg fasted): 4 (66.7%) n (%); lab toxicity: Triglycerides (mmol/L), upwards, Grade 2 (single dose 0.6 mg fasted): 0 n (%); lab toxicity: Triglycerides (mmol/L), upwards, Grade 3 (single dose 0.6 mg fasted): 0 n (%); lab toxicity: Urate (μmol/L), upwards, Grade 1 (single dose 0.6 mg fasted): 0 n (%); subjects with at least one AE (single dose 0.6 mg fasted): 3 (50.0%) n (%); subjects with at least one AE for which any study drug or study was permanently stopped (single dose 0.6 mg fasted): 0 n (%); subjects with at least one AE for which any study drug or study was temporarily stopped (single dose 0.6 mg fasted): 0 n (%); subjects with at least one AE possibly related to any study drug (single dose 0.6 mg fasted): 1 (16.7%) n (%); subjects with at least one AE possibly, probably or very likely related to any study drug (single dose 0.6 mg fasted): 1 (16.7%) n (%); subjects with at least one AE probably related to any study drug (single dose 0.6 mg fasted): 0 n (%); subjects with at least one AE very likely related to any study drug (single dose 0.6 mg fasted): 0 n (%); subjects with at least one SAE (single dose 0.6 mg fasted): 0 n (%); subjects with at least one fatal AE (single dose 0.6 mg fasted): 0 n (%); subjects with at least one grade 1 AE (single dose 0.6 mg fasted): 3 (50.0%) n (%); subjects with at least one grade 2 AE (single dose 0.6 mg fasted): 0 n (%); subjects with at least one grade 3 or 4 AE (single dose 0.6 mg fasted): 0 n (%); treatment-related AE: Any AE (single dose 0.6 mg fasted): 1 (16.7%) n (%); treatment-related AE: Chills (single dose 0.6 mg fasted): 0 n (%); treatment-related AE: Dizziness (single dose 0.6 mg fasted): 0 n (%); treatment-related AE: General disorders and administration site conditions (single dose 0.6 mg fasted): 0 n (%); treatment-related AE: Headache (single dose 0.6 mg fasted): 0 n (%); treatment-related AE: Hypertension (single dose 0.6 mg fasted): 0 n (%); treatment-related AE: Myalgia (single dose 0.6 mg fasted): 0 n (%); treatment-related AE: Nervous system disorders (single dose 0.6 mg fasted): 0 n (%); treatment-related AE: Oropharyngeal pain (single dose 0.6 mg fasted): 0 n (%); treatment-related AE: Pyrexia (single dose 0.6 mg fasted): 0 n (%); treatment-related AE: Respiratory, thoracic and mediastinal disorders (single dose 0.6 mg fasted): 1 (16.7%) n (%); treatment-related AE: Vascular disorder (single dose 0.6 mg fasted): 0 n (%); vital signs: Respiratory rate (brpm) Grade 1 (single dose 0.6 mg fasted): 3 (50.0%) n (%); vital signs: Respiratory rate (brpm) Grade 2 (single dose 0.6 mg fasted): 0 n (%); vital signs: SaO2 (%) 90% to <95% (single dose 0.6 mg fasted): 0 n (%); vital signs: SaO2 (%) 95% to <98% (single dose 0.6 mg fasted): 4 (66.7%) n (%); vital signs: Standing DBP (mmHg) Grade 1 (single dose 0.6 mg fasted): 0 n (%); vital signs: Standing DBP (mmHg) Grade 2 (single dose 0.6 mg fasted): 0 n (%); vital signs: Standing DBP (mmHg) Grade 3 (single dose 0.6 mg fasted): 0 n (%); vital signs: Standing DBP (mmHg) Low (single dose 0.6 mg fasted): 0 n (%); vital signs: Standing SBP (mmHg) Grade 1 (single dose 0.6 mg fasted): 1 (16.7%) n (%); vital signs: Standing SBP (mmHg) Low (single dose 0.6 mg fasted): 0 n (%); vital signs: Standing pulse (bpm) High (single dose 0.6 mg fasted): 0 n (%); vital signs: Standing pulse (bpm) Low (single dose 0.6 mg fasted): 0 n (%); vital signs: Supine DBP (mmHg) Grade 1 (single dose 0.6 mg fasted): 0 n (%); vital signs: Supine DBP (mmHg) Low (single dose 0.6 mg fasted): 1 (16.7%) n (%); vital signs: Supine SBP (mmHg) Grade 1 (single dose 0.6 mg fasted): 1 (16.7%) n (%); vital signs: Supine SBP (mmHg) Grade 2 (single dose 0.6 mg fasted): 0 n (%); vital signs: Supine SBP (mmHg) Low (single dose 0.6 mg fasted): 0 n (%); vital signs: Supine pulse (bpm) Low (single dose 0.6 mg fasted): 1 (16.7%) n (%); ↑ AST Grade 3 (laboratory abnormality) (single dose 0.6 mg fasted): 0 n (%); ↑ Amylase Grade 2 (laboratory abnormality) (single dose 0.6 mg fasted): 0 n (%); ↑ Cholesterol Grade 2 (laboratory abnormality) (single dose 0.6 mg fasted): 0 n (%); ↑ Creatine kinase Grade 2 (laboratory abnormality) (single dose 0.6 mg fasted): 1 (17) n (%); ↑ Creatine kinase Grade 4 (laboratory abnormality) (single dose 0.6 mg fasted): 0 n (%); ↑ Glucose Grade 2 (laboratory abnormality) (single dose 0.6 mg fasted): 1 (17) n (%); ↑ LDL cholesterol Grade 2 (laboratory abnormality) (single dose 0.6 mg fasted): 1 (17) n (%); ↑ LDL cholesterol Grade 3 (laboratory abnormality) (single dose 0.6 mg fasted): 0 n (%); ↑ Lipase Grade 2 (laboratory abnormality) (single dose 0.6 mg fasted): 0 n (%); ↑ Pancreatic amylase Grade 2 (laboratory abnormality) (single dose 0.6 mg fasted): 0 n (%); ↑ Potassium Grade 2 (laboratory abnormality) (single dose 0.6 mg fasted): 0 n (%); ↑ Sodium Grade 2 (laboratory abnormality) (single dose 0.6 mg fasted): 1 (17) n (%); ↑ Triglycerides Grade 2 (laboratory abnormality) (single dose 0.6 mg fasted): 0 n (%); ↑ Triglycerides Grade 3 (laboratory abnormality) (single dose 0.6 mg fasted): 0 n (%); ↓ Bicarbonate Grade 2 (laboratory abnormality) (single dose 0.6 mg fasted): 0 n (%); ↓ GFR Grade 2 (laboratory abnormality) (single dose 0.6 mg fasted): 0 n (%); ↓ Lymphocytes Grade 2 (laboratory abnormality) (single dose 0.6 mg fasted): 0 n (%); ↓ Lymphocytes Grade 4 (laboratory abnormality) (single dose 0.6 mg fasted): 0 n (%); ↓ Neutrophils Grade 2 (laboratory abnormality) (single dose 0.6 mg fasted): 0 n (%); ↓ Phosphate Grade 2 (laboratory abnormality) (single dose 0.6 mg fasted): 0 n (%); subjects with headache (AE) (single dose 1.25 mg): 4 (50.0%) n (%); subjects with myalgia (AE) (single dose 1.25 mg): 3 (37.5%) n (%); subjects with pyrexia (AE) (single dose 1.25 mg): 3 (37.5%) n (%); Any AE (treatment-emergent) (single dose 1.25 mg fasted): 8 (100) n (%); Back pain Grade 1 (treatment-emergent AE) (single dose 1.25 mg fasted): 1 (13) n (%); Chills Grade 1 (treatment-emergent AE) (single dose 1.25 mg fasted): 0 n (%); Contact dermatitis Grade 1 (treatment-emergent AE) (single dose 1.25 mg fasted): 0 n (%); Dizziness Grade 1 (treatment-emergent AE) (single dose 1.25 mg fasted): 0 n (%); ECG actual value: Heart rate (bpm) Low (single dose 1.25 mg fasted): 0 n (%); ECG actual value: QRS (ms) High (single dose 1.25 mg fasted): 1 (12.5%) n (%); ECG actual value: QTcB (ms) ]450; 480] (single dose 1.25 mg fasted): 1 (12.5%) n (%); ECG actual value: QTcF (ms) ]450; 480] (single dose 1.25 mg fasted): 1 (12.5%) n (%); ECG change from reference: QTcB (ms) [30; 60] (single dose 1.25 mg fasted): 3 (37.5%) n (%) and 3 (37.5%)^a n (%); ECG change from reference: QTcF (ms) [30; 60] (single dose 1.25 mg fasted): 1 (12.5%) n (%) and 1 (12.5%)^a n (%); Headache Grade 1 (treatment-emergent AE) (single dose 1.25 mg fasted): 4 (50) n (%); Headache Grade 2 (treatment-emergent AE) (single dose 1.25 mg fasted): 0 n (%); Hypertension Grade 1 (treatment-emergent AE) (single dose 1.25 mg fasted): 0 n (%); Hypertension Grade 2 (treatment-emergent AE) (single dose 1.25 mg fasted): 0 n (%); Myalgia Grade 1 (treatment-emergent AE) (single dose 1.25 mg fasted): 3 (38) n (%); Oropharyngeal pain Grade 1 (treatment-emergent AE) (single dose 1.25 mg fasted): 2 (25) n (%); Pyrexia Grade 1 (treatment-emergent AE) (single dose 1.25 mg fasted): 2 (25) n (%); Pyrexia Grade 2 (treatment-emergent AE) (single dose 1.25 mg fasted): 1 (13) n (%); URTI Grade 1 (treatment-emergent AE) (single dose 1.25 mg fasted): 2 (25) n (%); lab toxicity: Amylase (U/L), upwards, Grade 1 (single dose 1.25 mg fasted): 1 (12.5%) n (%); lab toxicity: Amylase (U/L), upwards, Grade 2 (single dose 1.25 mg fasted): 0 n (%); lab toxicity: Cholesterol (mmol/L), upwards, Grade 1 (single dose 1.25 mg fasted): 1 (12.5%) n (%); lab toxicity: Cholesterol (mmol/L), upwards, Grade 2 (single dose 1.25 mg fasted): 0 n (%); lab toxicity: Creatine kinase (U/L), upwards, Grade 1 (single dose 1.25 mg fasted): 0 n (%); lab toxicity: Creatine kinase (U/L), upwards, Grade 2 (single dose 1.25 mg fasted): 0 n (%); lab toxicity: Creatine kinase (U/L), upwards, Grade 4 (single dose 1.25 mg fasted): 0 n (%); lab toxicity: Glucose (mmol/L), upwards, Grade 1 (single dose 1.25 mg fasted): 3 (37.5%) n (%); lab toxicity: Glucose (mmol/L), upwards, Grade 2 (single dose 1.25 mg fasted): 1 (12.5%) n (%); lab toxicity: LDL cholesterol (mmol/L, calculated), upwards, Grade 1 (single dose 1.25 mg fasted): 0 n (%); lab toxicity: LDL cholesterol (mmol/L, calculated), upwards, Grade 2 (single dose 1.25 mg fasted): 0 n (%); lab toxicity: LDL cholesterol (mmol/L, calculated), upwards, Grade 3 (single dose 1.25 mg fasted): 1 (12.5%) n (%); lab toxicity: Lymphocytes (giga/L), downwards, Grade 2 (single dose 1.25 mg fasted): 1 (12.5%) n (%); lab toxicity: Lymphocytes (giga/L), downwards, Grade 4 (single dose 1.25 mg fasted): 0 n (%); lab toxicity: Neutrophils, segmented (giga/L), downwards, Grade 1 (single dose 1.25 mg fasted): 2 (25.0%) n (%); lab toxicity: Neutrophils, segmented (giga/L), downwards, Grade 2 (single dose 1.25 mg fasted): 0 n (%); lab toxicity: Platelets (giga/L), downwards, Grade 1 (single dose 1.25 mg fasted): 1 (12.5%) n (%); lab toxicity: Sodium (mmol/L), upwards, Grade 1 (single dose 1.25 mg fasted): 2 (25.0%) n (%); lab toxicity: Sodium (mmol/L), upwards, Grade 2 (single dose 1.25 mg fasted): 1 (12.5%) n (%); lab toxicity: Triglycerides (mmol/L), upwards, Grade 1 (single dose 1.25 mg fasted): 3 (37.5%) n (%); lab toxicity: Triglycerides (mmol/L), upwards, Grade 2 (single dose 1.25 mg fasted): 4 (50.0%) n (%); lab toxicity: Triglycerides (mmol/L), upwards, Grade 3 (single dose 1.25 mg fasted): 0 n (%); lab toxicity: Urate (μmol/L), upwards, Grade 1 (single dose 1.25 mg fasted): 0 n (%); subjects with Grade 2 treatment-related AEs (pyrexia) (single dose 1.25 mg fasted): 1 (12.5%) n (%); subjects with at least one AE (single dose 1.25 mg fasted): 8 (100%) n (%); subjects with at least one AE for which any study drug or study was permanently stopped (single dose 1.25 mg fasted): 1 (12.5%) n (%); subjects with at least one AE for which any study drug or study was temporarily stopped (single dose 1.25 mg fasted): 0 n (%); subjects with at least one AE possibly related to any study drug (single dose 1.25 mg fasted): 5 (62.5%) n (%); subjects with at least one AE possibly, probably or very likely related to any study drug (single dose 1.25 mg fasted): 6 (75.0%) n (%); subjects with at least one AE probably related to any study drug (single dose 1.25 mg fasted): 3 (37.5%) n (%); subjects with at least one AE very likely related to any study drug (single dose 1.25 mg fasted): 0 n (%)
